1 molecule from patent US20210369662A1, “FAT ACCUMULATION INHIBITOR AND BLOOD LIPID LEVEL IMPROVING AGENT” (ASAHI GROUP HOLDINGS, LTD., priority 2018, published 2021) can be followed below.

Experiment [1] deals with cholesterol transporter (NPC1L1). Kind of experiment: Gene expression level of cholesterol transporter in jejunal epithelial tissue (real-time PCR). The class given is in vivo, mice. The note with it: 0.1% 10-HOA in high-fat diet, 15 weeks, mRNA relative to control group, internal standard 36b4 (FIG. 8). The protocol: (§1) The animal experiment was approved by the Animal Experiment Committee of Asahi Group Holdings, Ltd. (Mar. 9, 2017), and was conducted in accordance with the guidelines for the management and use of laboratory animals of the company's R&D center (implementation period: Apr. 3, 2017 to Jan. 10, 2018). Four-week-old C57BL/6N male mice (Japan SLC, Inc.) were purchased and used for the experiment. The mice were raised in the following environment: room temperature: 23±1.5° C., humidity: 55±15%, lighting time: 8:00 to 20:00.
High-fat diet containing 45 kcal % fat (Research Diets, Inc., D12451) was used to prepare feed with or without 0.1% 10-HOA. […]
After fasting for 16 hours from the day before dissection, the amount of abdominal visceral fat, subcutaneous fat, and total fat (sum of the amount of visceral fat and subcutaneous fat) were measured by a CT scanner (Latheta LCT-100; Hitachi Aloka Medical, Ltd.), under anesthesia by isoflurane inhalation. […]
The triglyceride concentration in the plasma was measured using a Triglyceride E test. The amount of cholesterol in the plasma was measured using a conventional method (G. Toshima et al., LipoSEARCH (registered trademark); Analytical GP-HPLC method for lipoprotein profiling and its applications, J. Biol. Macromol., 13 (2), 21-32 (2013)) at Skylight Biotech Inc,. […] The mRNA expression level was expressed as a relative value to the control group.

Experiment [2] has as its system C57BL/6N male mice on high-fat diet. Kind of experiment: Plasma lipids and apolipoprotein A-I in high-fat diet mice. The note with it: 0.1% 10-HOA in high-fat diet, 15 weeks. The class given is in vivo. As to the method:
as §1
(§2) High-fat diet containing 45 kcal % fat (Research Diets, Inc., D12451) was used to prepare feed with or without 0.1% 10-HOA. The four-week-old mice were acclimated to the high-fat diet for 2 weeks, then divided into two groups: (1) high-fat diet control group and (2) 0.1% 10-HOA-containing high-fat diet group, with 10 mice per group, and were administered the diet for 15 weeks. Feed and drinking water (tap water) were given freely by individual housing.
(§3) After fasting for 16 hours from the day before dissection, the amount of abdominal visceral fat, subcutaneous fat, and total fat (sum of the amount of visceral fat and subcutaneous fat) were measured by a CT scanner (Latheta LCT-100; Hitachi Aloka Medical, Ltd.), under anesthesia by isoflurane inhalation. Then, the abdomen was opened under anesthesia, and blood was collected from the abdominal vena cava. Visceral fat (perirenal fat, and retroperitoneal fat) and jejunal epithelial tissue were collected to measure the weight of adipose tissue. The above test was repeated three times, and an analysis was performed by a two-way analysis of variance (factor 1: test group, factor 2: number of animal experiments) (n=10×3/group).
The triglyceride concentration in the plasma was measured using a Triglyceride E test. The amount of cholesterol in the plasma was measured using a conventional method (G. Toshima et al., LipoSEARCH (registered trademark); Analytical GP-HPLC method for lipoprotein profiling and its applications, J. Biol. Macromol., 13 (2), 21-32 (2013)) at Skylight Biotech Inc,. Mouse Apolipoprotein A-I ELISAPRO kit (MABTECH) was used for the measurement of apolipoprotein A-I in the plasma. The jejunal epithelial tissue was collected by QIAzol Lysis Reagent (QIAGEN), and total RNA was extracted according to the product protocol of RNeasy Mini Kit (QIAGEN). Total RNA was reverse transcribed by M-MLV Reverse Transcriptase (Life Technologies Japan Ltd.) to prepare cDNA. To measure the mRNA expression level, real-time PCR by the intercalator method was performed using Light Cycler System (Roche Diagnostics K.K.). […] The mRNA expression level was expressed as a relative value to the control group.

For experiment [3] the test system is unchanged. The experiment in a line: Fat accumulation in high-fat diet mice (CT scan and adipose tissue weight). It counts as in vivo. The note with it: 15 weeks. The protocol:
as §1, §2, §3

Where [4] appears, read: 0.1% 10-HOA in high-fat diet (45 kcal % fat), adipose tissue weight, n=10x3/group.

`CCCCCCCCC(O)CCCCCCCCC(=O)O` (stereo not shown) [10-HOA, 10-hydroxyoctadecanoic acid]: the “gene expression level of the cholesterol transporter (NPC1L1) in jejunal epithelial tissue” value in experiment [1] was “decrease”. Further, the “triglyceride concentration in plasma” value in experiment [2] (16 h fasting, compared to control (FIG. 4)) is given as “decreasing tendency”. In addition, the “Apolipoprotein A-I in plasma” value in experiment [2] (ELISA, compared to control (FIG. 6)) is listed as “increasing tendency”. Also, the “small HDL cholesterol in plasma” value in experiment [2] (compared to control (FIG. 5)) was “significantly increased”. In addition, the “chylomicron cholesterol in plasma” value in experiment [2] (compared to control (FIG. 7)) is “significant decrease”. In experiment [3] (setting [4]), the “Fat on the posterior abdominal wall” value is 0.6805 ± 0.0206 g and the Perirenal fat is 0.4924 ± 0.0130 g. Also, the “weights of perirenal fat and retroperitoneal fat” value in experiment [3] (0.1% 10-HOA in high-fat diet, compared to control (Table 1)) is “reduced”. In addition, the “amount of abdominal visceral fat” value in experiment [3] (CT scanner, 0.1% 10-HOA in high-fat diet, compared to control group (FIG. 1)) was “significantly reduced”. Moreover, the “total amount of fat” value in experiment [3] (CT scanner, sum of visceral and subcutaneous fat, 0.1% 10-HOA in high-fat diet, compared to control (FIG. 3)) is on record as “decreasing tendency”.
